Experimental data: ChEMBL document CHEMBL3509421, “FDA drug approval package for diclofenac acid (NDA 22-202 CP, Ref ID: 3374276)”

Tests used:
clinical [1] = details: both, human, plasma, po, 50 mg
[2] = Mean AUC (0-infinity) value of diclofenac following single oral dosing of 50 mg Cataflam tablet in healthy human; format: ADME, organism-based; set-up: time infinity, dietary status Fasting, dose 50 mg, dosed compound id 2.46815e+06, dosed compound name Diclofenac potassium, gender Mixed, regimen Single, route oral; details: both, plasma, read-out: AUC (0-infinity)
[3] = Mean AUC(0-infinity) of diclofenac following single oral dosing of 50 mg diclofenac potassium soft gelatin capsule in healthy human; format: ADME, organism-based; set-up: time infinity, dietary status Fasting, dose 50 mg, dosed compound id 2.46815e+06, dosed compound name Diclofenac potassium, gender Mixed, regimen Single, route oral, study doses 25/50 mg; details: both, plasma, read-out: AUC (0-infinity)
[4] = Mean AUC(0-infinity) of diclofenac potassium following oral dosing of PRO-513 50 mg sachet in healthy human; format: ADME, organism-based; set-up: time infinity, dietary status Fed, dose 50 mg, dosed compound id 2.46815e+06, dosed compound name Diclofenac potassium, gender Mixed, regimen Single, route oral, study doses 50 mg; details: both, plasma, read-out: AUC(0-infinity)
[5] = (§1) Mean Kel of diclofenac potassium following oral dosing of PRO-513 50 mg sachet in healthy human; format: ADME, organism-based; set-up: dietary status Fed, dose 50 mg, dosed compound id 2.46815e+06, dosed compound name Diclofenac potassium, gender Mixed, regimen Single, route oral, study doses 50 mg; details: both, plasma
[6] = Mean AUC (0-t) value of diclofenac following single oral dosing of 35 mg Zorvolex capsule in healthy human; format: ADME, organism-based; set-up: dietary status Fed, dose 35 mg, dosed compound id 2.46815e+06, dosed compound name Diclofenac, gender Mixed, regimen Single, route oral; details: both, plasma
[7] = Mean AUC(0-t) of diclofenac following single oral dosing of 50 mg Cataflam in healthy human; format: ADME, organism-based; set-up: dietary status Fasting, dose 50 mg, dosed compound id 2.46815e+06, dosed compound name Diclofenac potassium, gender Mixed, regimen Single, route oral, study doses 50 mg; details: both, plasma
[8] = Mean AUC(0-infinity) of diclofenac following single oral dosing of 50 mg Cataflam in healthy human; format: ADME, organism-based; set-up: time infinity, dietary status Fasting, dose 50 mg, dosed compound id 2.46815e+06, dosed compound name Diclofenac potassium, gender Mixed, regimen Single, route oral, study doses 50 mg; details: both, plasma, read-out: AUC (0-infinity)
[9] = Median tmax of diclofenac following single oral dosing of 35 mg Zorvolex capsule in healthy human; format: ADME, organism-based; set-up: dietary status Fed, dose 35 mg, dosed compound id 2.46815e+06, dosed compound name Diclofenac, gender Mixed, regimen Single, route oral; details: both, plasma, read-out: Median Tmax
[10] = Maximum tmax of diclofenac following single oral dosing of 18 mg Zorvolex capsule in healthy human; format: ADME, organism-based, Plasma; set-up: dietary status Fasting, dose 18 mg, dosed compound id 2.46815e+06, dosed compound name Diclofenac, gender Mixed, regimen Single, route oral; details: in vivo
[11] = Mean median Tmax value of diclofenac potassium following oral dosing of PRO-513 50 mg sachet in healthy human; format: ADME, organism-based; set-up: dietary status Fed, dose 50 mg, dosed compound id 2.46815e+06, dosed compound name Diclofenac potassium, gender Mixed, regimen Single, route oral, study doses 50 mg; details: both, plasma, read-out: Median Tmax
[12] = Maximum tmax of diclofenac following single oral dosing of 50 mg Cataflam tablet in healthy human; format: ADME, organism-based, Plasma; set-up: dietary status Fasting, dose 50 mg, dosed compound id 2.46815e+06, dosed compound name Diclofenac potassium, gender Mixed, regimen Single, route oral; details: in vivo
[13] = Maximum tmax of diclofenac following single oral dosing of 35 mg Zorvolex capsule in healthy human; format: ADME, organism-based, Plasma; set-up: dietary status Fed, dose 35 mg, dosed compound id 2.46815e+06, dosed compound name Diclofenac, gender Mixed, regimen Single, route oral; details: in vivo
clinical [14] = details: both, human, plasma, po, 18 mg
[15] = (§2) Mean AUC (0-t) of diclofenac following single oral dosing of 50 mg diclofenac potassium softgel capsule in healthy human; format: ADME, organism-based; set-up: dietary status Fasting, dose 50 mg, dosed compound id 2.46815e+06, dosed compound name Diclofenac potassium, gender Mixed, regimen Single, route oral, study doses 25/50 mg; details: both, plasma
clinical [16] = details: both, human, plasma, po, 50 mg; remark: listed apart in the source
Description: Mean terminal elimination half-life of diclofenac following single oral dosing of 50 mg diclofenac potassium softgel capsule in healthy human

clinical [17] = details: both, human, plasma, po, 50 mg; remark: listed apart in the source
[18] = Mean Cmax value of diclofenac following single oral dosing of 35 mg Zorvolex capsule in healthy human; format: ADME, organism-based; set-up: dietary status Fasting, dose 35 mg, dosed compound id 2.46815e+06, dosed compound name Diclofenac, gender Mixed, regimen Single, route oral; details: both, plasma
clinical [19] = details: both, human, plasma, po, 35 mg
[20] = Mean Tmax of diclofenac following single oral dosing of 50 mg diclofenac potassium soft gelatin capsule in healthy human; format: ADME, organism-based; set-up: dietary status Fasting, dose 50 mg, dosed compound id 2.46815e+06, dosed compound name Diclofenac potassium, gender Mixed, regimen Single, route oral, study doses 25/50 mg; details: both, plasma
[21] = Mean AUC (0-t) value of diclofenac following single oral dosing of 50 mg Cataflam tablet in healthy human; format: ADME, organism-based; set-up: dietary status Fed, dose 50 mg, dosed compound id 2.46815e+06, dosed compound name Diclofenac potassium, gender Mixed, regimen Single, route oral; details: both, plasma
[22] = as §1; format: ADME, organism-based; set-up: dietary status Fasting, dose 50 mg, dosed compound id 2.46815e+06, dosed compound name Diclofenac potassium, gender Mixed, regimen Single, route oral, study doses 50 mg; details: both, plasma
[23] = Mean terminal elimination half-life of diclofenac potassium following oral dosing of Cataflam 50 mf tablet in healthy human; details: both, plasma, 50 mg
[24] = Median tmax of diclofenac following single oral dosing of 18 mg Zorvolex capsule in healthy human; format: ADME, organism-based; set-up: dietary status Fasting, dose 18 mg, dosed compound id 2.46815e+06, dosed compound name Diclofenac, gender Mixed, regimen Single, route oral; details: both, plasma, read-out: Median Tmax
[25] = Median tmax of diclofenac following single oral dosing of 50 mg Cataflam tablet in healthy human; format: ADME, organism-based; set-up: dietary status Fasting, dose 50 mg, dosed compound id 2.46815e+06, dosed compound name Diclofenac potassium, gender Mixed, regimen Single, route oral; details: both, plasma, read-out: Median Tmax
[26] = as §2; format: ADME, organism-based; set-up: dietary status Fed, dose 50 mg, dosed compound id 2.46815e+06, dosed compound name Diclofenac potassium, gender Mixed, regimen Single, route oral, study doses 25/50 mg; details: both, plasma
[27] = Mean AUC(0-infinity) of diclofenac potassium following oral dosing of Cataflam 50 mf tablet in healthy human; format: ADME, organism-based; set-up: time infinity, dietary status Fasting, dose 50 mg, dosed compound id 2.46815e+06, dosed compound name Diclofenac potassium, gender Mixed, regimen Single, route oral, study doses 50 mg; details: both, plasma, 50 mg, read-out: AUC(0-infinity)
[28] = Mean Tmax of diclofenac following single oral dosing of 50 mg diclofenac potassium softgel capsule in healthy human; format: ADME, organism-based; set-up: dietary status Fasting, dose 50 mg, dosed compound id 2.46815e+06, dosed compound name Diclofenac potassium, gender Mixed, regimen Single, route oral, study doses 25/50 mg; details: both, plasma
[29] = Mean Tmax of diclofenac following single oral dosing of 25 mg diclofenac potassium softgel capsule in healthy human; format: ADME, organism-based; set-up: dietary status Fed, dose 25 mg, dosed compound id 2.46815e+06, dosed compound name Diclofenac potassium, gender Mixed, regimen Single, route oral, study doses 25/50 mg; details: both, plasma
[30] = Mean Cmax value of diclofenac following single oral dosing of 50 mg Cataflam tablet in healthy human; format: ADME, organism-based; set-up: dietary status Fasting, dose 50 mg, dosed compound id 2.46815e+06, dosed compound name Diclofenac potassium, gender Mixed, regimen Single, route oral; details: both, plasma
clinical [31] = details: both, human, plasma, po, 50 mg; remark: listed apart in the source

Molecule O=C(O)Cc1ccccc1Nc1c(Cl)cccc1Cl [DICLOFENAC] has a half-life (clinical [1]) of 1.45 h, an AUC(0-inf) [2] of 1.33 µg·h/mL and an AUC(0-inf) [3] of 1.23 µg·h/mL. It also gave an AUC(0-inf) [4] of 1.08 µg·h/mL, a k el [5] of 0.000108 s⁻¹ and an AUC(0-t) [6] of 0.861 µg·h/mL. For the same molecule, the AUC(0-t) [7] was 1.13 µg·h/mL, the AUC(0-inf) [8] was 1.14 µg·h/mL and the Tmax [9] was 3.32 h. The “Maximum Tmax” value [10] was 4.5 h, the Tmax [11] was 0.17 h and the “Maximum Tmax” value [12] was 4.48 h. The “Maximum Tmax” value [13] was 10 h, the half-life (clinical [14]) was 1.87 h and the AUC(0-t) [15] was 1.52 µg·h/mL. It also gave a half-life (clinical [16]) of 1.07 h, a half-life (clinical [17]) of 2.15 h and a Cmax [18] of 0.869 µg/mL. It also gave a half-life (clinical [19]) of 2.1 h, a Tmax [20] of 0.48 h and an AUC(0-t) [21] of 1.18 µg·h/mL. For the same molecule, the k el [22] was 0.000156 s⁻¹, the half-life [23] was 1.56 h and the Tmax [24] was 1 h. For the same molecule, the Tmax [25] was 1 h, the AUC(0-t) [26] was 1.42 µg·h/mL and the AUC(0-inf) [27] was 1.1 µg·h/mL. For the same molecule, the Tmax [28] was 0.51 h, the Tmax [29] was 1.02 h and the Cmax [30] was 1.19 µg/mL. It also gave a half-life (clinical [31]) of 1.84 h.
